In PubChem BioAssay (NCI):
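Protocol summary: plate cells (96-well), add compound at 5 concentrations, incubate 48 h, interpolate endpoints linearly. GI50: concentration for 50% inhibition of growth. TGI: total growth inhibition.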

Key:
Assay in all cases: NCI anticancer screen, dose series, 48 h
786-0 renal = tested on: 786-0 renal
A498 renal = tested on: A498 renal
A549 NSCLC = tested on: A549 NSCLC
ACHN renal = tested on: ACHN renal
BT-549 breast = tested on: BT-549 breast
CAKI-1 renal = tested on: CAKI-1 renal
CCRF-CEM leukemia = tested on: CCRF-CEM leukemia
COLO 205 colon = tested on: COLO 205 colon
DU-145 prostate = tested on: DU-145 prostate
EKVX NSCLC = tested on: EKVX NSCLC
HCC-2998 colon = tested on: HCC-2998 colon
HCT-116 colon = tested on: HCT-116 colon
HCT-15 colon = tested on: HCT-15 colon
HL-60(TB) leukemia = tested on: HL-60(TB) leukemia
HOP-62 NSCLC = tested on: HOP-62 NSCLC
HOP-92 NSCLC = tested on: HOP-92 NSCLC
HS 578T breast = tested on: HS 578T breast
HT29 colon = tested on: HT29 colon
IGROV1 ovarian = tested on: IGROV1 ovarian
K-562 leukemia = tested on: K-562 leukemia
KM12 colon = tested on: KM12 colon
LOX IMVI melanoma = tested on: LOX IMVI melanoma
M14 melanoma = tested on: M14 melanoma
MCF7 breast = tested on: MCF7 breast
MDA-MB-231 breast = tested on: MDA-MB-231 breast
MDA-MB-435 = tested on: MDA-MB-435
MOLT-4 leukemia = tested on: MOLT-4 leukemia
NCI-H226 lung = tested on: NCI-H226 lung
NCI-H23 lung = tested on: NCI-H23 lung
NCI-H460 lung = tested on: NCI-H460 lung
NCI-H522 lung = tested on: NCI-H522 lung
NCI/ADR-RES ovarian = tested on: NCI/ADR-RES ovarian
OVCAR-3 ovarian = tested on: OVCAR-3 ovarian
OVCAR-4 ovarian = tested on: OVCAR-4 ovarian
OVCAR-5 ovarian = tested on: OVCAR-5 ovarian
OVCAR-8 ovarian = tested on: OVCAR-8 ovarian
PC-3 prostate = tested on: PC-3 prostate
RPMI-8226 leukemia = tested on: RPMI-8226 leukemia
RXF 393 renal = tested on: RXF 393 renal
SF-268 CNS = tested on: SF-268 CNS
SF-295 CNS = tested on: SF-295 CNS
SF-539 CNS = tested on: SF-539 CNS
SK-MEL-2 melanoma = tested on: SK-MEL-2 melanoma
SK-MEL-28 melanoma = tested on: SK-MEL-28 melanoma
SN12C renal = tested on: SN12C renal
SNB-19 CNS = tested on: SNB-19 CNS
SNB-75 CNS = tested on: SNB-75 CNS
SR leukemia = tested on: SR leukemia
SW-620 colon = tested on: SW-620 colon
T-47D breast = tested on: T-47D breast
TK-10 renal = tested on: TK-10 renal
U251 CNS = tested on: U251 CNS
UACC-257 melanoma = tested on: UACC-257 melanoma
UACC-62 melanoma = tested on: UACC-62 melanoma
UO-31 renal = tested on: UO-31 renal

Compound: COC1C(O)CC(OC2CC(OC3CC(O[C@@H]4C(=O)c5c(cc6cc(OC7CC(OC8CC(O)C(O)C(C)O8)C(O)C(C)O7)c(C)c(O)c6c5O)CC4[C@H](OC)C(=O)C(C)=O)OC(C)C3O)OC(C)C2O)OC1C (stereo partly specified)
- GI50 (786-0 renal): 33.1 nM
- TGI (786-0 renal): > 33300 nM
- GI50 (A498 renal): 23.3 nM
- TGI (A498 renal): 88.4 nM
- GI50 (A549 NSCLC): 15.9 nM
- TGI (A549 NSCLC): > 33300 nM
- GI50 (ACHN renal): 52 nM
- TGI (ACHN renal): > 33300 nM
- GI50 (BT-549 breast): 10 nM
- TGI (BT-549 breast): 33.5 nM
- GI50 (CAKI-1 renal): 41.5 nM
- TGI (CAKI-1 renal): > 33300 nM
- GI50 (CCRF-CEM leukemia): 15.6 nM
- TGI (CCRF-CEM leukemia): 673 nM
- GI50 (COLO 205 colon): 12.1 nM
- TGI (COLO 205 colon): 31.9 nM
- GI50 (DU-145 prostate): 15.5 nM
- TGI (DU-145 prostate): > 32200 nM
- GI50 (EKVX NSCLC): 20.1 nM
- TGI (EKVX NSCLC): > 33300 nM
- GI50 (HCC-2998 colon): 10.6 nM
- TGI (HCC-2998 colon): 40.2 nM
- GI50 (HCT-116 colon): 11.2 nM
- TGI (HCT-116 colon): > 33300 nM
- GI50 (HCT-15 colon): 101 nM
- TGI (HCT-15 colon): > 33300 nM
- GI50 (HL-60(TB) leukemia): 15.9 nM
- TGI (HL-60(TB) leukemia): 59.4 nM
- GI50 (HOP-62 NSCLC): 8.95 nM
- TGI (HOP-62 NSCLC): 26.9 nM
- GI50 (HOP-92 NSCLC): 10.8 nM
- TGI (HOP-92 NSCLC): 66.9 nM
- GI50 (HS 578T breast): 11.1 nM
- TGI (HS 578T breast): > 11300 nM
- GI50 (HT29 colon): 12.2 nM
- TGI (HT29 colon): 53.5 nM
- GI50 (IGROV1 ovarian): 15.9 nM
- TGI (IGROV1 ovarian): > 33300 nM
- GI50 (K-562 leukemia): 15.8 nM
- GI50 (KM12 colon): 10.9 nM
- TGI (KM12 colon): > 16000 nM
- GI50 (LOX IMVI melanoma): 8.5 nM
- TGI (LOX IMVI melanoma): 22.9 nM
- GI50 (M14 melanoma): 8.43 nM
- TGI (M14 melanoma): 21.4 nM
- GI50 (MCF7 breast): 10.8 nM
- TGI (MCF7 breast): > 33300 nM
- GI50 (MDA-MB-231 breast): 49.5 nM
- TGI (MDA-MB-231 breast): > 33300 nM
- GI50 (MDA-MB-435): 14.9 nM
- TGI (MDA-MB-435): 34.3 nM
- GI50 (MOLT-4 leukemia): 12.3 nM
- TGI (MOLT-4 leukemia): 60.7 nM
- GI50 (NCI-H226 lung): 13.2 nM
- GI50 (NCI-H23 lung): 12.5 nM
- TGI (NCI-H23 lung): 66.1 nM
- GI50 (NCI-H460 lung): 12 nM
- TGI (NCI-H460 lung): > 33300 nM
- GI50 (NCI-H522 lung): 8.77 nM
- TGI (NCI-H522 lung): 32.1 nM
- GI50 (NCI/ADR-RES ovarian): 433 nM
- TGI (NCI/ADR-RES ovarian): > 33300 nM
- GI50 (OVCAR-3 ovarian): 13.1 nM
- TGI (OVCAR-3 ovarian): 67.3 nM
- GI50 (OVCAR-4 ovarian): 24.5 nM
- TGI (OVCAR-4 ovarian): 10800 nM
- GI50 (OVCAR-5 ovarian): 23.4 nM
- TGI (OVCAR-5 ovarian): > 33300 nM
- GI50 (OVCAR-8 ovarian): 13.2 nM
- TGI (OVCAR-8 ovarian): > 33300 nM
- GI50 (PC-3 prostate): < 14.2 nM
- TGI (PC-3 prostate): > 22600 nM
- GI50 (RPMI-8226 leukemia): 10.6 nM
- TGI (RPMI-8226 leukemia): 206 nM
- GI50 (RXF 393 renal): 25.2 nM
- TGI (RXF 393 renal): 103 nM
- GI50 (SF-268 CNS): 13.7 nM
- TGI (SF-268 CNS): 138 nM
- GI50 (SF-295 CNS): 11 nM
- GI50 (SF-539 CNS): 9.76 nM
- TGI (SF-539 CNS): 27.4 nM
- GI50 (SK-MEL-2 melanoma): 9.27 nM
- TGI (SK-MEL-2 melanoma): 27.5 nM
- GI50 (SK-MEL-28 melanoma): 10.6 nM
- TGI (SK-MEL-28 melanoma): 52.8 nM
- GI50 (SN12C renal): 13.8 nM
- TGI (SN12C renal): > 33300 nM
- GI50 (SNB-19 CNS): 10.5 nM
- TGI (SNB-19 CNS): > 33300 nM
- GI50 (SNB-75 CNS): 6.78 nM
- TGI (SNB-75 CNS): 20 nM
- GI50 (SR leukemia): 9.1 nM
- TGI (SR leukemia): 64.5 nM
- GI50 (SW-620 colon): 15.5 nM
- TGI (SW-620 colon): > 33300 nM
- GI50 (T-47D breast): 12 nM
- TGI (T-47D breast): 79.1 nM
- GI50 (TK-10 renal): 20.4 nM
- TGI (TK-10 renal): 75.8 nM
- GI50 (U251 CNS): < 10.6 nM
- TGI (U251 CNS): > 33300 nM
- GI50 (UACC-257 melanoma): 10.7 nM
- TGI (UACC-257 melanoma): 41.4 nM
- GI50 (UACC-62 melanoma): 7.19 nM
- TGI (UACC-62 melanoma): 16.7 nM
- GI50 (UO-31 renal): < 20 nM
